{"source": "patent US20040063742A1", "about": "(priority 2001, published 2004)", "key": {"[1]": {"target": "T1, 3H-dopamine uptake in striatal synaptosomes (Rattus norvegicus, UniProt P23977)", "T1 construct": "Corpi striati from male Wistar rats (150-200 g) are homogenised; from tissue; host or cells: rat corpus striatum (male Wistar), P2 synaptosomal pellet", "T1 sequence (P23977 whole entry)": "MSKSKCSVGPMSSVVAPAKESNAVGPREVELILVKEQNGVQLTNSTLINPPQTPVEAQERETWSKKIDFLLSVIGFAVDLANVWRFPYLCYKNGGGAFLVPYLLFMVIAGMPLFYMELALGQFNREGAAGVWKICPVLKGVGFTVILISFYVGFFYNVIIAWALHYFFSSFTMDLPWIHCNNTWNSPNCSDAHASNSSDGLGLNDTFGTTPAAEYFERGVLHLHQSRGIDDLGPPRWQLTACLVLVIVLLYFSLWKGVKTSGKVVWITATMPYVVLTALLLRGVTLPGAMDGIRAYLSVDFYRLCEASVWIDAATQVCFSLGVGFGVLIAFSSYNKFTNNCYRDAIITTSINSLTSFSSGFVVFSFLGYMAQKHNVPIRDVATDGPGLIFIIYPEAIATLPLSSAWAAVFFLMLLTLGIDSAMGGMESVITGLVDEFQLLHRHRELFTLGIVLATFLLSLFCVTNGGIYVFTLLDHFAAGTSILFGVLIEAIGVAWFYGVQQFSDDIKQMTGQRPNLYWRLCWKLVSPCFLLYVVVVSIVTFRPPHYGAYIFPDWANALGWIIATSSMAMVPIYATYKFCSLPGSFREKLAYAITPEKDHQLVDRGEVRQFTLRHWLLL", "assay": "In vitro inhibition of 3H-dopamine (3H-DA) uptake in striatal synaptosomes", "type": "biochemical", "experimental": "In vitro Inhibiti n of ^3H-dopamin (3H-DA) Uptake in Striatal Synaptosom s\nIn this test, the ability of a compound enhancing the dopamine activity (below: the test compound) to inhibit the uptake of ^3H-dopamine in striatal synaptosomes is assessed.\nTissue preparations: Preparations are performed at 0-4° C. unless otherwise indicated. Corpi striati from male Wistar rats (150-200 g) are homogenised for 5-10 sec in 100 volumes of ice-cold 0.32M sucrose containing 1 mM pargyline using an Ultra-Turrax homogenizer. Monoamine oxidase activity will be inhibited in the presence of pargyline. The homogenate is centrifuged at 1000×g for 10 min. The resulting supernatant is then centrifuged at 27,000×g for 50 min and the supernatant is discarded. […]\nAssay: Aliquots of 4.0 ml tissue suspension are added to 100 μl of test solution and 100 μl of ^3H-DA (1 nM, final concentration), mixed and incubated for 25 min at 37° C. Non-specific uptake is determined using benztropine (10 μM, final concentration). […] The amount of radioactivity on the filters is determined by conventional liquid scintillation counting. Specific uptake is calculated as the difference between total uptake and non-specific uptake. […]"}, "dopamine transporter": {"target": "T2, dopamine transporter (Rattus norvegicus, UniProt P23977)", "T2 construct": "Striata from male Wistar rats (150-200 g) are homogenized; from tissue; host or cells: rat striatum (male Wistar), membrane pellet", "T2 sequence (P23977 whole entry)": "as above", "assay": "Inhibition of in vitro [3H]WIN 35428 binding to the dopamine transporter in rat striatal synaptosomes", "conditions": "[3H]WIN 35428 1 nM", "experimental": "Inhibition of In Vitro [^3H]WIN 35428 Binding to the Dopamine Transporter in Rat Striatal Synaptosomes\nIn this method the ability of test compounds to inhibit the binding of WIN 35428 to the dopamine transporter in vitro is assessed.\nTissue preparation: Striata from male Wistar rats (150-200 g) are homogenized for 5-10 sec in 10 ml NaH2PO4 (50 mM, pH 7.4) using an Ultra-Turrax homogenizer. The suspension is centrifuged at 27,000×g for 15 min. The supernatant is discarded and the pellet is resuspended in phosphate buffer (1000 ml per g of original tissue) and used for binding assays.\nBinding assays: Aliquots of 0.5 ml tissue suspension are added to 0.025 ml of test solution and 0.025 ml of [^3H]WIN 35428 (1 nM, final concentration), mixed and incubated for 60 min at 2° C. Non-specific binding is determined using cocaine (30 μM, final concentration).\nAfter incubation 5 ml of ice-cold buffer is added to the samples and poured directly onto Whatman GF/C glass fiber filters (for the [^3H]GBR 12935 assay the filters are presoaked in 0.1% PEI for at least 20 min) under suction and immediately washed with 5 ml ice-cold buffer. The amount of radioactivity on the filters is determined by conventional liquid scintillation counting using a Tri-carb liquid scintillation analyzer (model 1600CA; Packard, USA). […]"}, "[2]": {"test_system": "dopaminergic neurons in dissociated cultures from rat E14 ventral mesencephali", "assay": "Survival of embryonic rat dopaminergic neurons", "type": "cell-based", "conditions": "TH-immunoreactive cells, 7 days in culture", "experimental": "Survival of Embryonic Rat Dopaminergic Neurons\nIn this experiment the effect of a test compound on the survival of dopaminergic neurons in dissociated cultures established from rat E14 ventral mesencephali (VM) is assessed.\nEmbryonic rat brains (Wistar; E14) were isolated under sterile conditions placed in chilled Gey's balanced salt solution (GIBCO) with glucose (6.5 mg/ml).\nThe ventral mesencephali were dissected out, cut into small tissue pieces, placed in Neurobasal medium with B27 supplement and gently pressed through a 80 μm Nitex filter. The cells were counted using a hemocytometer and plated in a 6 well multi-dish at a density of approximately 2.0×10^6 cells/well. Culture dishes were pre-coated with poly-D-lysine.\nAfter 1 hour, the medium was removed and fresh medium added (1.5 ml/well). […] Untreated cultures served as controls. The medium was changed every other day and antimitotics and antibiotics were not used at any stage.\nAfter 7 days in culture, cultures were then immunostained for tyrosine hydroxylase (TH). Briefly, the cells were washed in 0.05M tris-buffered saline (TBS, pH 7.4) containing 1% Triton X-100 for 3×15 minutes and incubated with 10% foetal bovine serum (FBS, Life Technologies) in TBS for 30 minutes. The cells were then incubated for 24 hours at 4° C. with monoclonal mouse anti-TH antibody (Boehringer Mannheim) diluted 1:600 in TBS with 10% FBS. After rinsing in TBS with 1% Triton X-100 for 3×15 minutes, cells were incubated for 60 minutes with biotinylated anti-mouse IgG antibody (Amersham) diluted 1:200 in TBS with 10% FBS. The cells were then washed in TBS with 1% Triton X-100 (3×15 minutes) and incubated for 60 minutes with streptavidine-peroxidase (Dako) diluted 1:200 in TBS with 10% FBS. After washing in TBS (3×15 minutes), bound antibody was visualised by treatment with 0.05% 3,3-diaminobenzidine (Sigma) in TBS containing 0.01% H2O2. TH-immunoreactive (ir) cells were counted manually."}}, "data": [{"smiles": "O=C1Nc2c(cc(-c3ccc(Cl)cc3)c3c2CCCC3)C1=NO", "note": "[compound a, 5-(4-Chlorophenyl)-6,7,8,9-tetrahydro-1-H-pyrrolo[3.2-h]naphthalene-2,3-dione-3-oxime]", "values": [{"measurement": "IC50", "setting": "[1]", "result": 34, "unit": "nM"}, {"measurement": "IC50", "setting": "dopamine transporter", "result": 140, "unit": "nM"}, {"measurement": "Inhibition of cell loss", "setting": "[2]; 0.3 μM compound a", "result": 74, "unit": "%"}, {"measurement": "Inhibition of cell loss", "setting": "[2]; 1.0 μM compound a", "result": 62, "unit": "%"}, {"measurement": "Inhibition of cell loss", "setting": "[2]; 3.0 μM compound a", "result": 17, "unit": "%"}]}]}
